Data taken from patent US10765674B2, “Prevention of HIV-infection” (Janssen Sciences Ireland Unlimited Company, priority 2005, dated 2020).
Where two headings read alike, the source gives them in different places.

Experiment: Plasma kinetics of TMC278 in beagle dogs after single intramuscular administration
Type: in vivo
Settings: single IM 2.5 mg/kg, aqueous 30% DMA/50% PEG400 solution; for half-life / Cmax / Tmax / AUC(0-t): im; for AUC(0-t): read-out: AUC0-312 h; for concentration at 0 h: 0 h (predose); for concentration at 0.5 h: 0.5 h after dose; for concentration at 1 h: 1 h after dose; for concentration at 2 h: 2 h after dose; for concentration at 4 h: 4 h after dose; for concentration at 8 h: 8 h after dose; for concentration at 24 h: 24 h after dose; for concentration at 32 h: 32 h after dose; for concentration at 48 h: 48 h after dose; for concentration at 72 h: 72 h after dose; for concentration at 96 h: 96 h after dose; for concentration at 144 h: 144 h after dose; for concentration at 192 h: 192 h after dose; for concentration at 240 h: 240 h after dose; for concentration at 312 h: 312 h after dose; for concentration at 36 day: day 36; for concentration at 50 day: day 50; for concentration at 64 day: day 64; for concentration at 78 day: day 78; for concentration at 92 day: day 92; for concentration at 106 day: day 106; for concentration at 120 day: day 120; for concentration at 134 day: day 134; for concentration at 148 day: day 148
Method: The present study was performed in order to study the plasma kinetics and the absolute bioavailability of TMC278 in beagle dogs after single intramuscular administration (IM) of an aqueous 30% dimethylacetamide (DMA)/50% polyethylene glycol 400 (PEG400) solution of TMC278 at 2.5 mg/kg. The dogs were dosed IM.
Two male beagle dogs (dog No. 16924 and 16854), approximately 3 years old and weighing between 11 and 12 kg at the start of the experimental phase, were used in the present experiment. The dogs were dosed intramuscularly at 0.1 ml/kg body weight by injecting the formulation in the left (dog No. 16924) or right (dog No. 16854) m. biceps femoris.
One day before dose administration, TMC278 was formulated in an aqueous 30% (w/v) DMA/50% (w/v) PEG400 solution at 25 mg/ml. The ingredients of the solution were: TMC278, DMA 30% (w/v), PEG 400 50% (w/v) and pyrogenic free water. The content of TMC278 in the formulation was checked using LC. The concentration of TMC278 in the formulation was 25 mg/ml.
Blood samples (4 ml on EDTA) were taken from a jugular vein from the dogs at 0 (=predose), 0.5, 1, 2, 4, 8, 24, 32, 48, 72, 96, 144, 192, 240 and 312 h after dose administration. After sampling, the blood samples were immediately placed on melting ice and protected from light. Blood samples were centrifuged at approximately 1900×g for 10 minutes at 5° C. to allow plasma separation. Immediately after separation, plasma samples were protected from light, placed on melting ice and stored at ≤−18° C. until analysis. Frozen plasma samples were transferred to the Bioanalytical Department. Since TMC278 was still detectable in the plasma samples at 312 h post-dose, additional blood samples of both dogs were collected on the days 36, 50, 64, 78, 92, 106, 120, 134 and 148. These samples were analogously processed and analysed.
The concentration of TMC278 in dog plasma was determined by a qualified research LC-MS/MS method after solid phase extraction (SPE). Plasma concentrations of TMC278 were determined after proper sample clean up. The samples (0.1 ml aliquots of plasma) were extracted using a solid phase extraction method (Bond Elut Certify solid phase columns, 130 mg, SPE, Varian). The SPE column was conditioned with 3 ml methanol, 3 ml water and 1 ml acetic acid 1 M.
After addition of 3 ml acetic acid to 0.1 ml aliquots of plasma, the samples were extracted on the column followed by washing the column with 1 ml water, 1 ml acetic acid 1 M and 3 ml methanol. The column was eluted with 3 ml methanol/NH4OH 25% (98:2, v/v). The extract was evaporated to dryness and reconstituted in 150 μl of ammonium formate 0.01 M (adjusted to pH 4 with formic acid)/methanol (50/50). 20 μl-aliquots were injected onto a reversed phase LC-column (100×4.6 mm ID, packed with 3 μm Hypersil C18 BDS) with a flow of 800 μl/min. The elution mixture was ammonium formate 0.01 M (adjusted to pH 4 with formic acid)/methanol (40:60, v/v). The flow-rate to the mass spectrometer was about 100 μl/min after splitting. LC-MS/MS analysis was carried out on an API-3000 system (Applied Biosystems), which was coupled to an HPLC-system.
Individual plasma concentration-time profiles were subjected to a non-compartmental pharmacokinetic analysis. Peak plasma concentrations (Cmax) and corresponding peak times (Tmax) were determined. The AUC from time 0 to time t (AUC0-t, where t is the time point associated with the last measurable concentration above the limit of quantification) was calculated by means of the linear/log trapezoidal rule: i.e. linear trapezoidal rule up to Tmax: AUC0-Tmax=Σ[(ti+1−ti). (Ci+Ci+1)/2], and log trapezoidal for the remainder of the curve: AUCTmax-t=Σ[(ti+1−ti). (Ci−Ci+1)/ln(Ci/Ci+1)], Ci and Ci+1 being the plasma concentrations at times ti and ti+1, respectively. […]

[1] = male, beagle, dog, plasma, 2.5 mg/kg, dog No. 16854
[2] = male, beagle, dog, plasma, 2.5 mg/kg, dog No. 16924
[3] = male, beagle, dog, plasma, 2.5 mg/kg, mean (n=2)
[4] = male, beagle, dog, plasma, intramuscular, 2.5 mg/kg, dog No. 16854
[5] = male, beagle, dog, plasma, intramuscular, 2.5 mg/kg, dog No. 16854, read-out: plasma concentration during the wash-out period
[6] = male, beagle, dog, plasma, intramuscular, 2.5 mg/kg, dog No. 16924
[7] = male, beagle, dog, plasma, intramuscular, 2.5 mg/kg, dog No. 16924, read-out: plasma concentration during the wash-out period
[8] = male, beagle, dog, plasma, intramuscular, 2.5 mg/kg, mean (n=2)
[9] = male, beagle, dog, plasma, intramuscular, 2.5 mg/kg, mean (n=2), read-out: plasma concentration during the wash-out period

Structure (SMILES): Cc1cc(C=CC#N)cc(C)c1Nc1ccnc(Nc2ccc(C#N)cc2)n1 [TMC278, 4-[[4-[[4-(2-cyanoethenyl)-2,6-dimethylphenyl]amino]-2-pyrimidinyl]-amino]benzonitrile]
- plasma levels during the wash-out period (range) (both dogs, days 36 to 148): 1.24 to 4.23 ng/mL
- plasma concentration during the wash-out period (dog No. 16924, day 272): <1.00 ng/mL
- half-life (male, beagle, dog, plasma, 2.5 mg/kg, dog No. 16854, half-life between 8 h and 24 h, read-out: t1/2, 8-24 h (converted)): 8.9 h
- Cmax [1]: 39.9 ng/mL
- Tmax [1]: 8 h
- AUC(0-t) [1]: 2120 ng·h/mL
- half-life (male, beagle, dog, plasma, 2.5 mg/kg, dog No. 16854, read-out: t1/2, 24-72 h (converted)): 75.2 h
- half-life (male, beagle, dog, plasma, 2.5 mg/kg, dog No. 16924, half-life between 1 h and 24 h, read-out: t1/2, 1-24 h (converted)): 15.1 h
- Cmax [2]: 23.8 ng/mL
- Tmax [2]: 1 h
- AUC(0-t) [2]: 1600 ng·h/mL
- half-life (male, beagle, dog, plasma, 2.5 mg/kg, dog No. 16924, read-out: t1/2, 24-72 h (converted)): 51 h
- Cmax [3]: 31.9 ng/mL
- Tmax [3]: 5 h
- AUC(0-t) [3]: 1860 ng·h/mL
- half-life (male, beagle, dog, plasma, 2.5 mg/kg, mean (n=2), read-out: t1/2, 24-72 h (converted)): 63 h
- concentration at 0 h [4]: < 1 ng/mL
- concentration at 0.5 h [4]: 13.5 ng/mL
- concentration at 1 h [4]: 17 ng/mL
- concentration at 2 h [4]: 20.6 ng/mL
- concentration at 4 h [4]: 27.2 ng/mL
- concentration at 8 h [4]: 39.9 ng/mL
- concentration at 24 h [4]: 11.4 ng/mL
- concentration at 32 h [4]: 10.7 ng/mL
- concentration at 48 h [4]: 9.03 ng/mL
- concentration at 72 h [4]: 7.37 ng/mL
- concentration at 96 h [4]: 6.4 ng/mL
- concentration at 144 h [4]: 3.19 ng/mL
- concentration at 192 h [4]: 2.8 ng/mL
- concentration at 240 h [4]: 6.16 ng/mL
- concentration at 312 h [4]: 4.24 ng/mL
- concentration at 36 day [5]: 3.66 ng/mL
- concentration at 50 day [5]: 4.1 ng/mL
- concentration at 64 day [5]: 2.18 ng/mL
- concentration at 78 day [5]: 2.62 ng/mL
- concentration at 92 day [5]: 2.32 ng/mL
- concentration at 106 day [5]: 2.02 ng/mL
- concentration at 120 day [5]: 1.87 ng/mL
- concentration at 134 day [5]: 1.67 ng/mL
- concentration at 148 day [5]: 1.41 ng/mL
- concentration at 0 h [6]: < 1 ng/mL
- concentration at 0.5 h [6]: 21.3 ng/mL
- concentration at 1 h [6]: 23.8 ng/mL
- concentration at 2 h [6]: 20.9 ng/mL
- concentration at 4 h [6]: 17.1 ng/mL
- concentration at 8 h [6]: 15.1 ng/mL
- concentration at 24 h [6]: 7.7 ng/mL
- concentration at 32 h [6]: 6.65 ng/mL
- concentration at 48 h [6]: 6.03 ng/mL
- concentration at 72 h [6]: 3.9 ng/mL
- concentration at 96 h [6]: 3.97 ng/mL
- concentration at 144 h [6]: 3.65 ng/mL
- concentration at 192 h [6]: 3.57 ng/mL
- concentration at 240 h [6]: 4.38 ng/mL
- concentration at 312 h [6]: 5.97 ng/mL
- concentration at 36 day [7]: 3.05 ng/mL
- concentration at 50 day [7]: 2.12 ng/mL
- concentration at 64 day [7]: 2.42 ng/mL
- concentration at 78 day [7]: 1.69 ng/mL
- concentration at 92 day [7]: 2.51 ng/mL
- concentration at 106 day [7]: 1.75 ng/mL
- concentration at 120 day [7]: 4.23 ng/mL
- concentration at 134 day [7]: 1.61 ng/mL
- concentration at 148 day [7]: 1.24 ng/mL
- concentration at 272 day (male, beagle, dog, plasma, intramuscular, 2.5 mg/kg, dog No. 16924, day 272, read-out: plasma concentration during the wash-out period): < 1 ng/mL
- concentration at 0 h [8]: < 1 ng/mL
- concentration at 0.5 h [8]: 17.4 ng/mL
- concentration at 1 h [8]: 20.4 ng/mL
- concentration at 2 h [8]: 20.8 ng/mL
- concentration at 4 h [8]: 22.2 ng/mL
- concentration at 8 h [8]: 27.5 ng/mL
- concentration at 24 h [8]: 9.55 ng/mL
- concentration at 32 h [8]: 8.68 ng/mL
- concentration at 48 h [8]: 7.53 ng/mL
- concentration at 72 h [8]: 5.64 ng/mL
- concentration at 96 h [8]: 5.19 ng/mL
- concentration at 144 h [8]: 3.42 ng/mL
- concentration at 192 h [8]: 3.19 ng/mL
- concentration at 240 h [8]: 5.27 ng/mL
- concentration at 312 h [8]: 5.11 ng/mL
- concentration at 36 day [9]: 3.36 ng/mL
- concentration at 50 day [9]: 3.11 ng/mL
- concentration at 64 day [9]: 2.3 ng/mL
- concentration at 78 day [9]: 2.16 ng/mL
- concentration at 92 day [9]: 2.42 ng/mL
- concentration at 106 day [9]: 1.89 ng/mL
- concentration at 120 day [9]: 3.05 ng/mL
- concentration at 134 day [9]: 1.64 ng/mL
- concentration at 148 day [9]: 1.33 ng/mL
- t1/2, 24-72 h (mean (n=2)): 63.1 h
